Source: patent US5153181A, “Pharmaceutical compositions comprising organic polymers containing inorganic anionic groups and method of prophylaxis and treatment of retrovirus infections in mammals using said compositions” (priority 1986, dated 1992)
Where two headings read alike, the source gives them in different places.

What was measured:
[1] = cited from earlier work
[2] = LD50 taken from published literature; settings: in vivo; calculated from MW
From the text: The LD50 values are known from the literature.
The results shown in FIGS. 1A and B allow to determine the concentration of the inhibitors which result in 90% or 99% inhibition. The quotient of the LD50 values (taken from published literature) and the inhibitor concentrations indicated in FIG. 1 is the efficiency index shown in Table I.

[3] = biological target: T1, SR-D-associated reverse transcriptase (Rous sarcoma virus - Schmidt-Ruppin B, UniProt O92956); assay type: biochemical
T1 construct: alpha/beta heterodimer cut from Gag-Pol polyprotein
T1 sequence (O92956 709-1567): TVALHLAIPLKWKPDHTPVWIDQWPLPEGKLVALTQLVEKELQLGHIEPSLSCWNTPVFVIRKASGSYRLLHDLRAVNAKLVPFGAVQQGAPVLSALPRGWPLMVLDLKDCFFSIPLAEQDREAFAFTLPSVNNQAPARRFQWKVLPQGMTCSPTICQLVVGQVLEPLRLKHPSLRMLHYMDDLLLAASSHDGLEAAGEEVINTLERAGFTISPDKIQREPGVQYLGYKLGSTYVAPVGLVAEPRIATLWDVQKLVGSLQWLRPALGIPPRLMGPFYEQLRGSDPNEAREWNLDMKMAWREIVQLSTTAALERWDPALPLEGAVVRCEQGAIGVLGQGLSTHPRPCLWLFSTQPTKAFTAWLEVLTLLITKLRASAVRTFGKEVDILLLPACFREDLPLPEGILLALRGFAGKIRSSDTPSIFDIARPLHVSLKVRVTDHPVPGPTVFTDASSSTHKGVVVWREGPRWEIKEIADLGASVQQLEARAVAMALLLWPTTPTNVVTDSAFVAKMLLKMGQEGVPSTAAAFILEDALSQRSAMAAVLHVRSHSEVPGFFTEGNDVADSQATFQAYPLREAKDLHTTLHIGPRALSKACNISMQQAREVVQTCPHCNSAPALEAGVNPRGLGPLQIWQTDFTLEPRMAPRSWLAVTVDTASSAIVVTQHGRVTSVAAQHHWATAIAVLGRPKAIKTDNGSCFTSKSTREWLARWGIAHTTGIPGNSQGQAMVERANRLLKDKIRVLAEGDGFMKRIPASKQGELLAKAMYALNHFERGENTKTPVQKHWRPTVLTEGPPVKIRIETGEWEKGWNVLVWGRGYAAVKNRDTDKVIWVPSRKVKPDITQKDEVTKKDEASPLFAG

[4] = known from the literature; cited from earlier work
[5] = poly(rA) template, oligo(dT)10 primer, FIGS. 1A and B

Compound | Inhibition of RNA-dependent DNA synthesis (3H-TMP incorporation) [3, 5] | other results
O=C(O)P(=O)(O)O [foscarnet] | Somewhat less inhibitory | Toxicity in clinical trials [1]: considerable toxicity; LD50 [2]: 500 mg/kg
Cc1ccc(C(=O)Nc2ccc(S(=O)(=O)O)c3cc(S(=O)(=O)O)cc(S(=O)(=O)O)c23)cc1NC(=O)c1cccc(NC(=O)Nc2cccc(C(=O)Nc3cc(C(=O)Nc4ccc(S(=O)(=O)O)c5cc(S(=O)(=O)O)cc(S(=O)(=O)O)c45)ccc3C)c2)c1 [suramin] | – | LD50 [4]: 40 mg/kg; Inhibition of RNA-dependent DNA synthesis (3H-TMP incorporation) [3]: Somewhat less inhibitory
chondroitin sulfate | Low inhibitory effect | –
dextran | Low inhibitory effect | –
dextran sulfate MW 8,000 | efficient inhibitors | –
dextran sulfate MW 500,000 | efficient inhibitors | –
dextran sulfate MW 5000 | Low inhibitory effect | –
diethylamine ethyl-dextran [DEAE-dextran] | Low inhibitory effect | –
heparin | Low inhibitory effect | –
pentosan polysulfate MW 5,000 | Somewhat less inhibitory | –
